Results from patent US5705649A, “Protein staining compositions and methods” (Promega Corporation, priority 1995, dated 1998).

Legend:
[1] = test system: Promega Mid Range Molecular Weight Markers; test: Rapid enhancement of the staining of proteins with low residual color in the gel
Protocol: In order to develop such a method, several 10% SDS-PAGE gels made as described in Example 5 were made and loaded with samples made as described therein with the following changes: the sample loading size was reduced to 5 μl; and the solutions were made to contain 1.0, 0.50, 0.25, and 0.125 μg of each protein band of Promega Mid Range Molecular Weight Markers in 5 μl of the sample. Each gel was loaded such that duplicate panels of samples containing the various concentrations of protein were present in 4 consecutive lanes. The gels were run as described above and the gel was cut between the duplicate sample panels. A gel segment containing one panel was placed in each of the following solutions: 30 ml of 2% glacial acetic acid (A); 30 ml of 2% glacial acetic acid in 10% methanol (B); 2% glacial acetic acid in 20% methanol (C); 2% glacial acetic acid in 30% methanol (D); 30 ml of water (E); 30 ml of 10% methanol (F); 30 ml of 20% methanol (G); and 30 ml of 30% methanol (H). The solutions were incubated with the gel segments for 10 minutes at room temperature and gently rotated at 40 rpm to prevent settling of the gel segments in the containers. […]
Protocols using other dyes that have been developed for the sensitive detection of protein sometimes employ the incubation of the gel in solutions containing the stain followed by incubation of the gel in solutions lacking the stain. In order to determine if such a protocol could be used to allow even lower levels of protein to be detected using Promega Green 1, the following study was performed. […]

carbonic anhydrase = test: Staining in polyacrylamide gels not containing SDS; conditions: 50 mM Tris-HCl pH 8.0
Protocol: (§1) A polyacrylamide gel was made containing a 10% separating gel and a 3% stacking gel having 50 mM Tris-HCl pH 8.0 as a buffer. A sample loading solution was made containing Promega Green 1 dissolved in 50 mM Tris-HCl, pH 8.0, 20% glycerol. Samples of bovine serum albumin (BSA) and carbonic anhydrase were added to the sample buffer. The samples were loaded onto the gel and the gel was assembled into a BioRad miniprotean II gel system. An electrode buffer solution of 50 mM Tris pH 8.0 was used to fill the buffer chamber and a voltage of 150 volts was applied to the apparatus. […] Therefore, the stain need not be used only in systems containing SDS.

[2] = test system: bovine serum albumin (BSA); test: Staining in polyacrylamide gels not containing SDS; conditions: 50 mM Tris-HCl pH 8.0
Protocol: as §1

[3] = test system: bovine serum albumin (BSA); test: Effect of solution pH on absorption in presence and absence of protein; assay type: physicochemical
Protocol: The effect of solution pH on the absorption of Promega Green 1 in the presence and absence of added protein was studied by dilution of Promega Green 1 solution at a ratio of 1:1000 (v/v) into various solutions containing 0 or 100 μg of protein (bovine serum albumin (BSA)) per ml of liquid. The solutions tested were highly acidic (1N HCl), moderately acidic (2% acetic acid), weakly acidic (50 mM ammonium acetate pH 4.0), weakly basic (50 mM ammonium bicarbonate pH 7.8), and strongly basic (500 mM Tris base). The absorption spectra of the solutions were measured from […] and the peak absorbances are reported below.

[4] = test system: Promega Mid-Range Molecular Weight Standards; test: Quantitation of proteins separated by SDS-PAGE, sensitivity overall; conditions: extracted bands
Protocol: A 10% SDS-PAGE gel was made as described in the Example 5. Promega Mid-Range Molecular Weight Standards were diluted into loading buffer to produce solutions containing 2.0, 1.0, 0.5, and 0.25 μg of protein per band in 5 μl of solution. Duplicate 5 μl solutions of each of these solutions were loaded into 1 of the 10 sample wells in the gel after the solutions were heated at 95° C. for 10 minutes. The gel was then electrophoresed at 160 V until the running dye just eluted from the bottom of the gel. The gel was destained, and signal from stained protein enhanced, for 90 minutes in 30% methanol, 4% acetic acid.
One of the pair of duplicate bands for the 97.4, 66.2, 55.0 and 42.7 kilodalton standards from the lanes containing 2.0, 1.0, 0.5, and 0.25 μg of protein per band were excised with a razor blade as were two control gel segments from regions of the gel not containing protein. The excised segments were placed in individual 1.5 ml Eppendorf tubes containing 2% SDS and allowed to incubate at room temperature for 72 hours. After this time, the solutions were removed from the extracted segments and acetic acid was added to 2% (v/v) final concentration. The absorption of the solutions at […] was then measured.

[5] = moderately acidic (2% acetic acid), protein absent
[6] = moderately acidic (2% acetic acid), protein present (100 μg/ml BSA)
[7] = strongly acidic (1N HCl), protein absent
[8] = strongly acidic (1N HCl), protein present (100 μg/ml BSA)
[9] = strongly basic (500 mM Tris base), protein absent
[10] = strongly basic (500 mM Tris base), protein present (100 μg/ml BSA)
[11] = weakly acidic (50 mM ammonium acetate pH 4.0), protein absent
[12] = weakly acidic (50 mM ammonium acetate pH 4.0), protein present (100 μg/ml BSA)
[13] = weakly basic (50 mM ammonium bicarbonate pH 7.8), protein absent
[14] = weakly basic (50 mM ammonium bicarbonate pH 7.8), protein present (100 μg/ml BSA)

## CCCCCCCC(=O)N(c1ccc(OCC)cc1)c1ccc(C(=C2C=CC(=[N+](CC)Cc3cccc(S(=O)(=O)[O-])c3)C=C2)c2ccc(N(CC)Cc3cccc(S(=O)(=O)O)c3)cc2)cc1 [Promega Green 1]
[1]; methanol/acetic acid solutions A-H, 10 min then 60 min
  amount of protein in a band that can be detected: less than 125 ng
[1]; post-incubation with dye 1:5000 and 1:10,000 in 30-50% methanol, then without dye
  lowest protein per band visible: 62.5 ng
[1]; solution set H (30% methanol, then 2% acetic acid in 30% methanol)
  background staining: very little background staining remaining
Carbonic anhydrase
  staining of carbonic anhydrase in gel without SDS: seen to migrate through the gel as stained bands
[2]
  staining of BSA in gel without SDS: seen to migrate through the gel as stained bands
[3]; [5]
  ABS (peak absorbance): 0.83
  absorption max: 631 nm
[3]; [6]
  ABS (peak absorbance): 0.98
  absorption max: 635 nm
[3]; [7]
  ABS (peak absorbance): 0.27
  absorption max: 649 nm
[3]; [8]
  ABS (peak absorbance): 0.39
  absorption max: 641 nm
[3]; [9]
  ABS (peak absorbance): 0.22
  absorption max: 637 nm
[3]; [10]
  ABS (peak absorbance): 0.128
  absorption max: 637 nm
[3]; [11]
  ABS (peak absorbance): 0.49
  absorption max: 636 nm
[3]; [12]
  ABS (peak absorbance): 0.25
  absorption max: 638 nm
[3]; [13]
  ABS (peak absorbance): 0.49
  absorption max: 636 nm
[3]; [14]
  ABS (peak absorbance): 0.26
  absorption max: 637 nm
[4]
  lowest amount of protein measured quantitatively: 250 ng
